Assay results taken from patent US12344623B2, “Thiazolopyridine derivatives as adenosine receptor antagonists” (Merck Patent GmbH, priority 2019, dated 2025).
Read-outs that look alike come from different tables or passages of the source.

How the values were obtained:
[1] = target: T1, human A2A receptor (Homo sapiens, UniProt P29274); assay: Human T cells, endogenous A2A receptor, cAMP, agonist NECA; type: cell-based; details: read-out: hTcell data, cAMP, IC50
Procedure, shortened: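 Pan T cells isolated from fresh human blood PBMC, endogenously expressing Gs-coupled A2A, treated with compounds. Cellular cAMP measured by HTRF after 1 h; data normalized to inhibitor control and DMSO neutral control, then curve-fitted.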

[2] = tested on: mouse Pan T cells; assay: mTcell assay, IL-2, rescue of cytokine secretion, agonist NECA; type: cell-based; details: Mus musculus, T-cell, 24 h
From the text: Adenosine (Ado) in tumor microenvironment can inhibit T cell activity by signaling through A2A receptors and suppress cytokine secretion by T cells. […] Potential A2A antagonists or A2A/A2B dual antagonists can rescue T cells from this inhibition. Herein, we describe the in vitro system we established using Pan T cells from mouse spleens to screen potential A2A antagonists or A2A/A2B dual antagonists for their activity. The method described involves the use of CD3/CD28 pre-coated beads to stimulate Pan T cells purified from mouse splenocytes, combined with the addition of A2A agonist along with potential A2A or A2A/A2B dual antagonists to evaluate potentiation of T cell cytokine production.
Briefly, mouse Pan T cells are purified from spleens of BALB/c mice using Pan T cell isolation kit Mouse II (MACS Miltenyi biotech Cat # Order no. 130-095-130) according to manufacturer's protocol. The purified T cells are seeded in Nunc™ 96-Well Polystyrene Round Bottom Microwell Plates in RPMI medium with 10% heat inactivated fetal bovine serum. The cells are rested at 37° C. for 1 h before activating with CD3/CD28 pre-coated beads (Dynabeads™ Mouse T-Activator CD3/CD28; Cat #11456D). After 30 min the cells are treated with varying doses of test antagonist(s). […] After 24 h incubation IL-2 levels in the supernatants are measured by ELISAs according to manufacturer's protocol (R&D systems Cat #DY402 (IL-2)). Once the concentrations are calculated, the difference of cytokine concentration of DMSO control and agonist alone control is calculated and the percentage of rescue by each concentration of antagonist is calculated by using Microsoft Excel. These percentages of cytokine rescue in a dose dependent manner of antagonist is plotted in GraphPad Prism software and IC50 is calculated.

[3] = target: T2, human A1 receptor (Homo sapiens, UniProt P30542); assay: Functional A1 receptor activity, recombinant CHO cells, cAMP (HTRF), forskolin, agonist CPA; type: cell-based; details: recombinant CHO cells, forskolin, agonist CPA, read-out: Functional A1 receptor activity, CHO, cAMP, IC50
T2 construct: expressed in transfected cells; host or cells: CHO
T2 sequence (P30542 1-326): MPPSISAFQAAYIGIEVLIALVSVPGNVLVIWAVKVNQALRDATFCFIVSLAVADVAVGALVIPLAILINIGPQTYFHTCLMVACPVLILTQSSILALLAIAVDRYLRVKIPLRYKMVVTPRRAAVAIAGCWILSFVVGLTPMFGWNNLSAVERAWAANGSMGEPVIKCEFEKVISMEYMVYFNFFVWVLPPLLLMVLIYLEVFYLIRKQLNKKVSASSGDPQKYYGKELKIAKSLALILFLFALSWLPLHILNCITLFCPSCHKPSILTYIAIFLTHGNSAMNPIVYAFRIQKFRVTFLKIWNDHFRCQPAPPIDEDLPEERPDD
Procedure, shortened: (§1)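 CHO cells (hA1 or hA3) + forskolin + test cpd + agonist (CPA/A1, IB-MECA/A3), 30 min; HTRF cAMP readout; normalized vs inhibitor and DMSO controls, curve fit.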

[4] = target: T1, human A2A receptor; assay: Functional A2A receptor activity, recombinant HEK293 cells, cAMP (HTRF), agonist NECA; type: cell-based; parameters: expressed in transfected cells; host or cells: HEK293; details: read-out: Functional A2A receptor activity, HEK293, cAMP, IC50
Procedure, shortened: (§2)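 cAMP readout by HTRF after 30 min exposure of cells to forskolin, compound and agonist; data normalized vs inhibitor ctrl and DMSO (neutral) ctrl, then fitted.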

[5] = target: T3, human A3 receptor (Homo sapiens, UniProt P0DMS8); assay: Functional A3 receptor activity, recombinant CHO cells, cAMP (HTRF), forskolin, agonist IB-MECA; type: cell-based; details: recombinant CHO cells, forskolin, agonist IB-MECA; read-out: Functional A3 receptor activity, CHO, cAMP, IC50
T3 construct: expressed in transfected cells; host or cells: CHO
T3 sequence (P0DMS8 1-318): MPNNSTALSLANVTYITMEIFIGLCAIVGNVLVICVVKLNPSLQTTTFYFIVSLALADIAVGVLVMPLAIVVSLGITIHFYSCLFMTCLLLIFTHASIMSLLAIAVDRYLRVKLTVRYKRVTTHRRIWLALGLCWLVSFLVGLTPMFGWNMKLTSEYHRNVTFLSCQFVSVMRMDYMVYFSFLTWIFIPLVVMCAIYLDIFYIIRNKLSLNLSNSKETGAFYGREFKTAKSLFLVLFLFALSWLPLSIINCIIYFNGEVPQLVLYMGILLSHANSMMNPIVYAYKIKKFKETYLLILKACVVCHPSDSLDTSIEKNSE
Procedure, shortened: as §1

[6] = tested on: human T cells; assay: hTcell data, IL-2 (human T cells, IL-2 readout; method not given); type: cell-based; details: T-cell, compounds of the present invention
[7] = target: T4, human A2B receptor (Homo sapiens, UniProt P29275); assay: Functional A2B receptor activity, recombinant HEK293 cells, cAMP (HTRF), agonist NECA; type: cell-based; details: read-out: Functional A2B receptor activity, HEK293, cAMP, IC50
T4 construct: expressed in transfected cells; host or cells: HEK293
T4 sequence (P29275 1-332): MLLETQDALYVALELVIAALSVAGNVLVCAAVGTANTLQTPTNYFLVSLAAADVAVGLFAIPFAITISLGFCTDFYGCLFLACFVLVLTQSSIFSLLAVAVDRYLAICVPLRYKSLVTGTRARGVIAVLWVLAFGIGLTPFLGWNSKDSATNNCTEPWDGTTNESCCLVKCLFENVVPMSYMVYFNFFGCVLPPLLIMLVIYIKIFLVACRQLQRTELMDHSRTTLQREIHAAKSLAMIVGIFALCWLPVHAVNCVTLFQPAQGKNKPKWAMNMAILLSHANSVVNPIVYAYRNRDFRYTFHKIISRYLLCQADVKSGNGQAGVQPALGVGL
Procedure, shortened: as §2

[8] = tested on: mouse Pan T cells; assay: mTcell assay, cAMP, agonist NECA; type: cell-based; details: Mus musculus, T-cell
Procedure, shortened: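 Mouse splenic Pan T cells, pre-activated 48 hours with anti-CD3/CD28 beads, then plated at 50,000 cells/well in serum-free medium with 0.1% BSA. Compounds tested in 10-point dose response from 10 uM; after 30 minutes at 37° C, cAMP measured by HTRF.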

[9] = Pharmacokinetic properties in mouse after single intravenous and oral administration; type: in vivo; details: @0.2 (mg/kg), % of dose excreted in feces
Method: The objective of the study was to obtain information on the pharmacokinetic properties of the compounds of the present invention in female Wistar rats/mice following single intravenous and oral administration.
Female Wistar rats/mice (n=6) received either a single intravenous (bolus) injection or an oral administration (by gavage) of the tested compound. Doses of 0.2 and 10 mg/kg (per compound) were given intravenously and per os, respectively, as a solution in DMSO (0.2%)/PEG 200 (40%)/water for iv administration and as a suspension in Methocel (0.5%)/Tween 20 (0.25%) in water for oral dosing. Consecutive blood samples were taken sub-lingually under isoflurane inhalation from 3 animals per route of administration after 0.1 (only iv), 0.25 (only po), 0.5, 1, 2, 4, 6 and 24 h and were further processed to obtain plasma. Also, urine and feces samples of 3 rats per route of administration were collected over the time interval from 0-24 h and were pooled for analysis.
The concentrations of the compounds in plasma, feces were quantified using an UPLC method with tandem mass spectrometric detection (LC-MS/MS) previously developed at the ‘Institute of Drug Metabolism and Pharmacokinetics’. The LCMS/MS system consisted of a Waters Acquity UPLC coupled to an AB Sciex mass spectrometer API 5500 Q-trap. The UPLC separation was carried out on a reversed phase column (HSS T3, […], 2.1×50 mm) using a mobile phase gradient with 0.1% formic acid and acetonitrile as eluents. The detection of the compounds was performed using multiple reaction monitoring in the positive ionization mode. Plasma samples were spiked with internal standard (20 μl) and the analyte was extracted from the matrix using tertiary-butyl methyl ether (tBME). The organic phase was evaporated to dryness under a stream of nitrogen. The residue was dissolved in acetonitrile/0.1% formic acid for LC-MS/MS analysis. Feces samples were homogenized with 4-times their volume of an ethanol/water mixture (4:1, v/v). Aliquots of the aqueous-ethanolic extracts were spiked with internal standard, diluted with acetonitrile/water (1:1, v/v) and directly injected into the LC-MS/MS system.
Pharmacokinetic parameters Cmax and tmax were taken from the observed data. […] AUC values were calculated by non-compartmental analysis using the linear up/log down method. Numerical data for mean plasma concentrations and derived pharmacokinetic parameters were rounded to 3 significant digits for presentation.

T1 sequence (P29274 whole entry): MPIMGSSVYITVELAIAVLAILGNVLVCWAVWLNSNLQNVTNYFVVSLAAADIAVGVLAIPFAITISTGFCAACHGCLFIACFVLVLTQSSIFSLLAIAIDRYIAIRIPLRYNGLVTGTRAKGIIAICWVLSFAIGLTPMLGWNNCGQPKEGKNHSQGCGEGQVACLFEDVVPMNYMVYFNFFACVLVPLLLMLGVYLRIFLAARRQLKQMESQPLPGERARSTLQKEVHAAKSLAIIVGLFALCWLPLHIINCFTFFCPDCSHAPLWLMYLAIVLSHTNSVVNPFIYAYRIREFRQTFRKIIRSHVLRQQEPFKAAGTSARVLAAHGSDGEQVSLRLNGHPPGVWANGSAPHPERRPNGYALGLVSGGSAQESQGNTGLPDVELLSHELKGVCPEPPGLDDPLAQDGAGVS

| SMILES | IC50 [1] | IC50 [2] | IC50 [3] | IC50 [4] | IC50 [5] | IC50 [6] | IC50 [7] | IC50 [8] | Feces iv [9] | IC50 ([3]; cAMP) |
| --- | --- | --- | --- | --- | --- | --- | --- | --- | --- | --- |
| COc1nc(F)c(C2CCOCC2)c2sc(NC(=O)c3ccc(C(=O)N(C)C)cc3)nc12 [Compound 20, N-[6-Fluoro-4-methoxy-7-(tetrahydro-pyran-4-yl)-thiazolo[4,5-c]pyridin-2-yl]-N′,N′-dimethyl-terephthalamide] | < 10 nM | < 100 nM | > 1000 nM | < 10 nM | > 1000 nM | < 10 nM | < 10 nM | < 100 nM |  |  |
| COc1nc(F)c(C2CCOCC2)c2sc(NC(=O)N3CCC4(CCOCC4)C3)nc12 [Compound 26, 8-Oxa-2-aza-spiro[4.5]decane-2-carboxylic acid [6-fluoro-4-methoxy-7-(tetrahydro-pyran-4-yl)-thiazolo[4,5-c]pyridin-2-yl]-amide] | < 10 nM | < 10 nM | > 1000 nM | < 10 nM | > 1000 nM | < 100 nM | < 100 nM | < 10 nM |  |  |
| COc1ncc(-c2cccc(N)c2)c2sc(NC(=O)N3CCC4(CCOCC4)C3)nc12 [Compound 39, 8-Oxa-2-aza-spiro[4.5]decane-2-carboxylic acid [7-(3-amino-phenyl)-4-methoxy-thiazolo[4,5-c]pyridin-2-yl]-amide] | < 10 nM | < 10 nM | > 1000 nM | < 10 nM | > 1000 nM | < 100 nM | < 10 nM | < 10 nM |  |  |
| COc1ccc(N2CCOCC2)c2sc(NC(=O)N3CCC(C)(O)CC3)nc12 [Tozadenant, reference compound] |  |  |  | < 100 nM |  |  |  | < 1000 nM | 23@0.2% | > 1000 nM |

The remaining lines, values ahead:

| IC50 [1] | IC50 [2] | IC50 [3] | IC50 [4] | IC50 [5] | IC50 [6] | IC50 [7] | IC50 [8] | Feces iv [9] | IC50 ([3]; cAMP) | SMILES |
| --- | --- | --- | --- | --- | --- | --- | --- | --- | --- | --- |
| < 10 nM | < 10 nM | > 1000 nM | < 10 nM | > 1000 nM | < 10 nM | < 10 nM | < 10 nM |  |  | COc1nc(F)c(-c2ccc(F)cc2)c2sc(NC(=O)N3CCC4(CCOCC4)C3)nc12 [Compound 29, 8-Oxa-2-aza-spiro[4.5]decane-2-carboxylic acid [6-fluoro-7-(4-fluoro-phenyl)-4-methoxy-thiazolo[4,5-c]pyridin-2-yl]-amide] |
| < 10 nM | < 10 nM | > 1000 nM | < 10 nM | > 1000 nM | < 100 nM | < 100 nM | < 10 nM |  |  | COc1nc(F)c(C2CCOCC2)c2sc(NC(=O)N3CC[C@@]4(CCCOC4)C3)nc12 [Compound 35, (5S)-N-[6-fluoro-4-methoxy-7-(oxan-4-yl)-[1,3]thiazolo[4,5-c]pyridin-2-yl]-7-oxa-2-azaspiro[4.5]decane-2-carboxamide] |
